# Test system: Leptosphaeria nodorum (LEPTNO)
# Experiment: In vitro fungitoxicity of hydrazones with and without copper towards Leptosphaeria nodorum (Example 26)
# Assay type: cell-based
# Conditions: Parastagonospora nodorum, 72 h, copper-minus medium; test compound Concn. 0.05 μg/mL; 72 h at 25° C.; read-out: LEPTNO % Inhn. Minus Copper Observed
row,Compound,inhibition of growth at 0.05 µg/mL [%]
1,O=C(N/N=C/c1cc(Cl)cc(Br)c1O)c1cccc([N+](=O)[O-])c1 [Example 416],4.3
2,O=C(N/N=C/c1cc(Cl)cc(Br)c1O)c1ccc([N+](=O)[O-])cc1 [Example 417],10.7
3,O=C(N/N=C/c1cc(Cl)cc(Br)c1O)c1ccccc1C(F)(F)F [Example 418],0
4,Cc1cccc(C(=O)N/N=C/c2cc(Cl)ccc2O)c1 [Example 419],3.2
5,O=C(N/N=C/c1cc(Cl)ccc1O)c1cccc(F)c1 [Example 420],11.4
6,O=C(N/N=C/c1cc(Cl)ccc1O)c1ccc(F)cc1 [Example 421],8.2
7,O=C(N/N=C/c1cc(Cl)ccc1O)c1ccccc1C(F)(F)F [Example 422],0
8,Cc1cccc(C(=O)N/N=C/c2cccc(Cl)c2O)c1 [Example 423],0.8
9,Cc1ccc(C(=O)N/N=C/c2cccc(Cl)c2O)cc1 [Example 424],22.3
10,O=C(N/N=C/c1cccc(Cl)c1O)c1cccc(F)c1 [Example 425],17.5
11,O=C(N/N=C/c1cccc(Cl)c1O)c1ccc(F)cc1 [Example 426],34.8
12,O=C(N/N=C/c1cccc(Cl)c1O)c1cccc([N+](=O)[O-])c1 [Example 429],10.4
13,O=C(N/N=C/c1cccc(Cl)c1O)c1ccc([N+](=O)[O-])cc1 [Example 430],16.6
14,O=C(N/N=C/c1cccc(Cl)c1O)c1ccccc1O [Example 431],8.5
15,O=C(N/N=C/c1cccc(Cl)c1O)c1ccccc1C(F)(F)F [Example 432],0
16,Cc1ccc(C(=O)N/N=C/c2cccc(Cl)c2O)c(O)c1 [Example 433],10.8

row,Compound,inhibition of growth at 0.05 µg/mL [%]
1,Cc1ccc(C(=O)N/N=C/c2cc(Cl)cc(Br)c2O)c(O)c1 [Example 434],25.6
2,Cc1cccc(C(=O)N/N=C/c2cc(C(F)(F)F)ccc2O)c1 [Example 435],4.7
3,Cc1ccc(C(=O)N/N=C/c2cc(C(F)(F)F)ccc2O)cc1 [Example 436],14.6
4,O=C(N/N=C/c1cc(C(F)(F)F)ccc1O)c1cccc(F)c1 [Example 437],9.2
5,O=C(N/N=C/c1cc(C(F)(F)F)ccc1O)c1ccc(F)cc1 [Example 438],0
6,O=C(N/N=C/c1cc(C(F)(F)F)ccc1O)c1cccc(Cl)c1 [Example 439],0
7,O=C(N/N=C/c1cc(C(F)(F)F)ccc1O)c1cccc([N+](=O)[O-])c1 [Example 441],0
8,O=C(N/N=C/c1cc(C(F)(F)F)ccc1O)c1ccc([N+](=O)[O-])cc1 [Example 442],0
9,O=C(N/N=C/c1cc(C(F)(F)F)ccc1O)c1ccccc1C(F)(F)F [Example 444],0
10,Cc1ccc(C(=O)N/N=C/c2cc(C(F)(F)F)ccc2O)c(O)c1 [Example 445],13.2
11,Cc1ccc(C(=O)N/N=C/c2cc(Cl)ccc2O)c(O)c1 [Example 446],23.5
12,Cc1cccc(C(=O)N/N=C/c2c(C(F)(F)F)ccc(Cl)c2O)c1 [Example 447],20
13,Cc1ccc(C(=O)N/N=C/c2c(C(F)(F)F)ccc(Cl)c2O)cc1 [Example 448],27.1
14,O=C(N/N=C/c1c(C(F)(F)F)ccc(Cl)c1O)c1cccc(F)c1 [Example 449],7.2
15,O=C(N/N=C/c1c(C(F)(F)F)ccc(Cl)c1O)c1ccc(F)cc1 [Example 450],1.1

# Same assay, conditions: copper-plus medium (CuCl2 10 μM); test compound Concn. 0.05 μg/mL; 72 h at 25° C.
row,Compound,LEPTNO % Inhn. Plus Copper Observed [%]
1,O=C(N/N=C/c1cc(Cl)cc(Br)c1O)c1cccc([N+](=O)[O-])c1 [Example 416],97.5
2,O=C(N/N=C/c1cc(Cl)cc(Br)c1O)c1ccc([N+](=O)[O-])cc1 [Example 417],98.2
3,O=C(N/N=C/c1cc(Cl)cc(Br)c1O)c1ccccc1C(F)(F)F [Example 418],97.3
4,Cc1cccc(C(=O)N/N=C/c2cc(Cl)ccc2O)c1 [Example 419],94.9
5,O=C(N/N=C/c1cc(Cl)ccc1O)c1cccc(F)c1 [Example 420],97.5
6,O=C(N/N=C/c1cc(Cl)ccc1O)c1ccc(F)cc1 [Example 421],96.6
7,O=C(N/N=C/c1cc(Cl)ccc1O)c1ccccc1C(F)(F)F [Example 422],95.5
8,Cc1cccc(C(=O)N/N=C/c2cccc(Cl)c2O)c1 [Example 423],98.0
9,Cc1ccc(C(=O)N/N=C/c2cccc(Cl)c2O)cc1 [Example 424],97.0
10,O=C(N/N=C/c1cccc(Cl)c1O)c1cccc(F)c1 [Example 425],97.6
11,O=C(N/N=C/c1cccc(Cl)c1O)c1ccc(F)cc1 [Example 426],97.3
12,O=C(N/N=C/c1cccc(Cl)c1O)c1cccc([N+](=O)[O-])c1 [Example 429],97.4
13,O=C(N/N=C/c1cccc(Cl)c1O)c1ccc([N+](=O)[O-])cc1 [Example 430],98.2
14,O=C(N/N=C/c1cccc(Cl)c1O)c1ccccc1O [Example 431],95.1
15,O=C(N/N=C/c1cccc(Cl)c1O)c1ccccc1C(F)(F)F [Example 432],95.9
16,Cc1ccc(C(=O)N/N=C/c2cccc(Cl)c2O)c(O)c1 [Example 433],97.8

row,Compound,LEPTNO % Inhn. Plus Copper Observed [%]
1,Cc1ccc(C(=O)N/N=C/c2cc(Cl)cc(Br)c2O)c(O)c1 [Example 434],97.4
2,Cc1cccc(C(=O)N/N=C/c2cc(C(F)(F)F)ccc2O)c1 [Example 435],97.2
3,Cc1ccc(C(=O)N/N=C/c2cc(C(F)(F)F)ccc2O)cc1 [Example 436],98.2
4,O=C(N/N=C/c1cc(C(F)(F)F)ccc1O)c1cccc(F)c1 [Example 437],97.0
5,O=C(N/N=C/c1cc(C(F)(F)F)ccc1O)c1ccc(F)cc1 [Example 438],94.2
6,O=C(N/N=C/c1cc(C(F)(F)F)ccc1O)c1cccc(Cl)c1 [Example 439],100.0
7,O=C(N/N=C/c1cc(C(F)(F)F)ccc1O)c1cccc([N+](=O)[O-])c1 [Example 441],100.0
8,O=C(N/N=C/c1cc(C(F)(F)F)ccc1O)c1ccc([N+](=O)[O-])cc1 [Example 442],100.0
9,O=C(N/N=C/c1cc(C(F)(F)F)ccc1O)c1ccccc1C(F)(F)F [Example 444],100.0
10,Cc1ccc(C(=O)N/N=C/c2cc(C(F)(F)F)ccc2O)c(O)c1 [Example 445],100.0
11,Cc1ccc(C(=O)N/N=C/c2cc(Cl)ccc2O)c(O)c1 [Example 446],95.4
12,Cc1cccc(C(=O)N/N=C/c2c(C(F)(F)F)ccc(Cl)c2O)c1 [Example 447],96.6
13,Cc1ccc(C(=O)N/N=C/c2c(C(F)(F)F)ccc(Cl)c2O)cc1 [Example 448],97.5
14,O=C(N/N=C/c1c(C(F)(F)F)ccc(Cl)c1O)c1cccc(F)c1 [Example 449],98.5
15,O=C(N/N=C/c1c(C(F)(F)F)ccc(Cl)c1O)c1ccc(F)cc1 [Example 450],93.5

# Test system: not given
# Experiment: not given
# Conditions: not given
row,Compound,melting point [°C]
1,O=C(N/N=C/c1cc(Cl)cc(Br)c1O)c1cccc([N+](=O)[O-])c1 [Example 416],167 to 226
2,O=C(N/N=C/c1cc(Cl)cc(Br)c1O)c1ccc([N+](=O)[O-])cc1 [Example 417],237 to 250
3,O=C(N/N=C/c1cc(Cl)cc(Br)c1O)c1ccccc1C(F)(F)F [Example 418],266 to 274
4,Cc1cccc(C(=O)N/N=C/c2cc(Cl)ccc2O)c1 [Example 419],188 to 196
5,O=C(N/N=C/c1cc(Cl)ccc1O)c1cccc(F)c1 [Example 420],205 to 224
6,O=C(N/N=C/c1cc(Cl)ccc1O)c1ccc(F)cc1 [Example 421],234 to 243
7,O=C(N/N=C/c1cc(Cl)ccc1O)c1ccccc1C(F)(F)F [Example 422],154 to 164
8,Cc1cccc(C(=O)N/N=C/c2cccc(Cl)c2O)c1 [Example 423],166 to 169
9,Cc1ccc(C(=O)N/N=C/c2cccc(Cl)c2O)cc1 [Example 424],230 to 232
10,O=C(N/N=C/c1cccc(Cl)c1O)c1cccc(F)c1 [Example 425],178 to 184
11,O=C(N/N=C/c1cccc(Cl)c1O)c1ccc(F)cc1 [Example 426],194 to 198
12,O=C(N/N=C/c1cccc(Cl)c1O)c1cccc([N+](=O)[O-])c1 [Example 429],236 to 239
13,O=C(N/N=C/c1cccc(Cl)c1O)c1ccc([N+](=O)[O-])cc1 [Example 430],284 to 287
14,O=C(N/N=C/c1cccc(Cl)c1O)c1ccccc1O [Example 431],266 to 268
15,O=C(N/N=C/c1cccc(Cl)c1O)c1ccccc1C(F)(F)F [Example 432],118 to 121
16,Cc1ccc(C(=O)N/N=C/c2cccc(Cl)c2O)c(O)c1 [Example 433],258 to 266

row,Compound,melting point [°C]
1,Cc1ccc(C(=O)N/N=C/c2cc(Cl)cc(Br)c2O)c(O)c1 [Example 434],262 to 268
2,Cc1cccc(C(=O)N/N=C/c2cc(C(F)(F)F)ccc2O)c1 [Example 435],192 to 194
3,Cc1ccc(C(=O)N/N=C/c2cc(C(F)(F)F)ccc2O)cc1 [Example 436],245 to 249
4,O=C(N/N=C/c1cc(C(F)(F)F)ccc1O)c1cccc(F)c1 [Example 437],188 to 196
5,O=C(N/N=C/c1cc(C(F)(F)F)ccc1O)c1ccc(F)cc1 [Example 438],229 to 231
6,O=C(N/N=C/c1cc(C(F)(F)F)ccc1O)c1cccc(Cl)c1 [Example 439],187 to 197
7,O=C(N/N=C/c1cc(C(F)(F)F)ccc1O)c1cccc([N+](=O)[O-])c1 [Example 441],218 to 220
8,O=C(N/N=C/c1cc(C(F)(F)F)ccc1O)c1ccc([N+](=O)[O-])cc1 [Example 442],259 to 265
9,O=C(N/N=C/c1cc(C(F)(F)F)ccc1O)c1ccccc1C(F)(F)F [Example 444],174 to 176
10,Cc1ccc(C(=O)N/N=C/c2cc(C(F)(F)F)ccc2O)c(O)c1 [Example 445],264 to 271
11,Cc1ccc(C(=O)N/N=C/c2cc(Cl)ccc2O)c(O)c1 [Example 446],282 to 286
12,Cc1cccc(C(=O)N/N=C/c2c(C(F)(F)F)ccc(Cl)c2O)c1 [Example 447],219 to 221
13,Cc1ccc(C(=O)N/N=C/c2c(C(F)(F)F)ccc(Cl)c2O)cc1 [Example 448],216 to 218
14,O=C(N/N=C/c1c(C(F)(F)F)ccc(Cl)c1O)c1cccc(F)c1 [Example 449],227 to 229
15,O=C(N/N=C/c1c(C(F)(F)F)ccc(Cl)c1O)c1ccc(F)cc1 [Example 450],231 to 233

# Test system: Phytophthora infestans
# Experiment: not given
# Assay type: in vivo, Phytophthora infestans on tomato
# Conditions: hydrazone 50 ppm with 50 μM CuCl2.2H2O, applied 24 h before inoculation; assessed 7 days after inoculation; tomato late blight
row,Compound,TLB % Control [%]
1,O=C(N/N=C/c1cc(Cl)cc(Br)c1O)c1cccc([N+](=O)[O-])c1 [Example 416],93.0
2,O=C(N/N=C/c1cc(Cl)cc(Br)c1O)c1ccc([N+](=O)[O-])cc1 [Example 417],100.0
3,O=C(N/N=C/c1cc(Cl)cc(Br)c1O)c1ccccc1C(F)(F)F [Example 418],93.0
4,Cc1cccc(C(=O)N/N=C/c2cc(Cl)ccc2O)c1 [Example 419],90.0
5,O=C(N/N=C/c1cc(Cl)ccc1O)c1cccc(F)c1 [Example 420],100.0
6,O=C(N/N=C/c1cc(Cl)ccc1O)c1ccc(F)cc1 [Example 421],94.0
7,O=C(N/N=C/c1cc(Cl)ccc1O)c1ccccc1C(F)(F)F [Example 422],90.0
8,Cc1cccc(C(=O)N/N=C/c2cccc(Cl)c2O)c1 [Example 423],98.0
9,Cc1ccc(C(=O)N/N=C/c2cccc(Cl)c2O)cc1 [Example 424],100.0
10,O=C(N/N=C/c1cccc(Cl)c1O)c1cccc(F)c1 [Example 425],95.0
11,O=C(N/N=C/c1cccc(Cl)c1O)c1ccc(F)cc1 [Example 426],98.0
12,O=C(N/N=C/c1cccc(Cl)c1O)c1cccc([N+](=O)[O-])c1 [Example 429],94.0
13,O=C(N/N=C/c1cccc(Cl)c1O)c1ccc([N+](=O)[O-])cc1 [Example 430],100.0
14,O=C(N/N=C/c1cccc(Cl)c1O)c1ccccc1O [Example 431],91.0
15,O=C(N/N=C/c1cccc(Cl)c1O)c1ccccc1C(F)(F)F [Example 432],72.0
16,Cc1ccc(C(=O)N/N=C/c2cccc(Cl)c2O)c(O)c1 [Example 433],100.0

row,Compound,TLB % Control [%]
1,Cc1ccc(C(=O)N/N=C/c2cc(Cl)cc(Br)c2O)c(O)c1 [Example 434],100.0
2,Cc1cccc(C(=O)N/N=C/c2cc(C(F)(F)F)ccc2O)c1 [Example 435],100.0
3,Cc1ccc(C(=O)N/N=C/c2cc(C(F)(F)F)ccc2O)cc1 [Example 436],94.0
4,O=C(N/N=C/c1cc(C(F)(F)F)ccc1O)c1cccc(F)c1 [Example 437],100.0
5,O=C(N/N=C/c1cc(C(F)(F)F)ccc1O)c1ccc(F)cc1 [Example 438],98.0
6,O=C(N/N=C/c1cc(C(F)(F)F)ccc1O)c1cccc(Cl)c1 [Example 439],96.0
7,O=C(N/N=C/c1cc(C(F)(F)F)ccc1O)c1cccc([N+](=O)[O-])c1 [Example 441],96.0
8,O=C(N/N=C/c1cc(C(F)(F)F)ccc1O)c1ccc([N+](=O)[O-])cc1 [Example 442],98.0
9,O=C(N/N=C/c1cc(C(F)(F)F)ccc1O)c1ccccc1C(F)(F)F [Example 444],91.0
10,Cc1ccc(C(=O)N/N=C/c2cc(C(F)(F)F)ccc2O)c(O)c1 [Example 445],90.0
11,Cc1ccc(C(=O)N/N=C/c2cc(Cl)ccc2O)c(O)c1 [Example 446],57.0
12,Cc1cccc(C(=O)N/N=C/c2c(C(F)(F)F)ccc(Cl)c2O)c1 [Example 447],100.0
13,Cc1ccc(C(=O)N/N=C/c2c(C(F)(F)F)ccc(Cl)c2O)cc1 [Example 448],100.0
14,O=C(N/N=C/c1c(C(F)(F)F)ccc(Cl)c1O)c1cccc(F)c1 [Example 449],92.0
15,O=C(N/N=C/c1c(C(F)(F)F)ccc(Cl)c1O)c1ccc(F)cc1 [Example 450],100.0

# From patent US20120010075A1 (priority 2009, published 2012)
